Laboratory results published in PMC9545474, “Anticancer Water‐Soluble Organoruthenium Complexes: Synthesis and Preclinical Evaluation” (Chembiochem, 2022).
Where two headings read alike, the source gives them in different places.

How the values were obtained:
[1] = tested on: non-immortalised lymphocytes; set-up: method as in PMID 33119178; conditions: cited from earlier work
[2] = tested on: ovarian, colon, and lung cancer cell lines; set-up: method as in PMID 32237195; conditions: some ovarian; cited from earlier work
[3] = tested on: A2780cisR cisplatin-resistant ovarian cancer cells; set-up: method as in PMID 32237195; conditions: read-out: IC50 values ±SD, A2780cisR; cited from earlier work
[4] = tested on: A2780 ovarian cancer cells; set-up: method as in PMID 32237195; conditions: read-out: IC50 values ±SD, A2780; cited from earlier work
[5] = tested on: H460 non-small-cell lung cancer cells; set-up: method as in PMID 32237195; conditions: read-out: IC50 values ±SD, H460; cited from earlier work
MCF-7 cell line = tested on: MCF-7 cell line; set-up: method as in PMID 27357845; conditions: read-out: EC50 against MCF-7 cell line; cited from earlier work
A2780 cells = assay: JC-10 mitochondrial membrane potential assay by flow cytometry; assay type: cell-based, human; conditions: A2780, 24 h, complexes at IC50, cisplatin 6.5 µM
Text: A membrane potential sensitive fluorescent probe JC‐10 was used to determine whether the apoptosis induced by complexes 6 and 8 is accompanied by changes in the mitochondrial membrane potential (ΔΨm) of A2780 cells. JC‐10 aggregates inside mitochondria and emits orange fluorescence. Following membrane […], JC‐10 is disaggregated and this in turn reduces the orange fluorescence.
Figure 8 Effect of complexes 6 and 8 on the mitochondrial membrane potential. […] The percentages of cells with depolarised mitochondrial membrane potential were assessed by flow cytometry after staining with JC‐10. The data are expressed as the means±SD of the three individual experiments.
Mitochondrial membrane potential assay: Analysis of the changes of mitochondrial potential in A2780 cells after exposure to complexes 6 and 8 was carried out using the JC‐10 mitochondrial membrane potential assay kit (abcam®) according to the manufacturer's instructions. Briefly, 1.0×10^6 cells per well were seeded in a 6‐well plate and incubated for 24 at 37 °C and a 5 % CO2 humidified atmosphere. […] Supernatants were removed by suction, and each well was washed with PBS before detaching the cells using trypsin. Staining of the samples was done in tubes protected from light, incubating for 30 min in the dark at room temperature. Samples were immediately analysed on a BD Accuri C6 Plus System Flow Cytometer, reading the reduction of fluorescence in the FL2 channel.

[6] = tested on: H460 non-small-cell lung cancer cells; assay: 24-hour MTT chemosensitivity assay with 72-hour recovery, H460; assay type: cell-based; conditions: for IC50: 24 h exposure, 72 h recovery, MTT, read-out: IC50 values ±SD, H460
Description: (§1) Chemosensitivity studies were undertaken using a 24‐hour MTT assay, with a 72‐hour recovery period. The IC50 values were determined against ovarian A2780 (cisplatin‐sensitive) and A2780cisR (cisplatin‐resistant) cancer cell lines, non‐small‐cell lung H460 cancer cell line, and normal prostate PNT2 cell line, exposed to each of compounds 4–8, cisplatin or the phosphine ligands (Table 1 and S4, Figures S29–S31). […] This is unusual but can be related to solubility issues not visible for the naked eye and thus hindering its activity in cells. […] When tested on their own, the phosphine ligands are not active below 100 μM for all four cell lines. […] This therefore prevents comparison with the well‐known RAPTA family, and more especially with RAPTA−C which bears a PTA ligand and a p‐cym ligand, making this complex relatively similar in terms of geometry with complex 4.[21] […] This confirms the interest of the sulfur coordinating atom in terms of cytotoxicity for organoruthenium complexes.[23]
(§2) Chemosensitivity assay: In vitro chemosensitivity tests were performed against A2780, A2780cisR, PNT2 and H460 cells. Cells were routinely maintained as monolayer cultures in RPMI 1640 medium supplemented with 10 % foetal calf serum, penicillin (100 I.U./mL) and streptomycin (100 μg/mL), sodium pyruvate (1 mM) and L‐glutamine (2 mM). For chemosensitivity studies, cells were seeded in 96‐well plates at a concentration of 7.5×10^3 cells per well and the plates were incubated for 24 h at 37 °C and a 5 % CO2 humidified atmosphere prior to drug exposure.
(§3) Complexes were dissolved in either DMSO (complexes 4, 5, and 8) or PBS (complexes 6 and 7) to provide stock solutions which were further diluted with media to provide a range of final concentrations. Drug‐media solutions were added to cells (the final concentration of DMSO was less than 1 % (v/v) in all cases) and incubated for 24 h at 37 °C and a 5 % CO2 humidified atmosphere. The drug‐media solution was removed from the wells and the cells were washed with PBS (100 μL, twice) and 200 μL of complete fresh media were added to each well. The plates were further incubated for 72 h at 37 °C and a 5 % CO2 humidified atmosphere to allow for a period of recovery. 3‐(4,5‐dimethylthiazol‐2‐yl)‐2,5‐diphenyltetrazolium bromide (MTT) (40 μL, 2.5 mg/mL) was added to each well and plates were incubated for 2 h. All solutions were then removed and 100 μL of DMSO was added to each well in order to dissolve the purple formazan crystals. A Thermo Scientific Multiskan EX microplate photometer was used to measure the absorbance in each well at 570 nm. Cell survival was determined as the absorbance of treated cells divided by the absorbance of controls and expressed as a percentage. The IC50 values were determined from plots of % survival against drug concentration. Each experiment was repeated in triplicates of triplicates and a mean value was obtained and stated as IC50 (μM) ± SD. Untreated cells were used as a negative control, and cells treated with cisplatin were used as a positive control.

[7] = tested on: PNT2 non-cancerous human prostate cells; assay: 24-hour MTT chemosensitivity assay with 72-hour recovery, PNT2; assay type: cell-based; conditions: 24 h exposure, 72 h recovery, MTT; read-out: IC50 values ±SD, PNT2
Description: as §1, §2, §3

[8] = tested on: A2780cisR cisplatin-resistant ovarian cancer cells; assay: 24-hour MTT chemosensitivity assay with 72-hour recovery, A2780cisR; assay type: cell-based, human; conditions: for IC50: 24 h exposure, 72 h recovery, MTT, read-out: IC50 values ±SD, A2780cisR
Description: as §1, §2, §3

[9] = tested on: A2780 ovarian cancer cells; assay: 24-hour MTT chemosensitivity assay with 72-hour recovery, A2780; assay type: cell-based, human; conditions: for IC50: 24 h exposure, 72 h recovery, MTT, read-out: IC50 values ±SD, A2780
Description: as §1, §2, §3

[10] = Precipitation in drug-medium solutions; assay type: physicochemical

Question: Which results are given for `Cc1ccc(C(C)C)cc1.N#CC1=C(C#N)[S][Ru][S]1` [Complex 3, [(η^6‐p‐cymene)Ru(Mnt)]]?
Answer: Toxicity against non-immortalised lymphocytes from healthy individuals [1]: absence of toxicity; Potency relative to cisplatin [2]: 5 to 60 ×; IC50 [3]: 0.32 ± 0.15 µM; IC50 [4]: 0.5 ± 0.04 µM; IC50 [5]: 0.8 ± 0.1 µM

Question: With `Cc1ccc(C(C)C)cc1.[Cl][Ru-]1[O][n+]2ccccc2[S]1` [[(η^6‐p‐cymene)Ru(pyrithionato)Cl]] as the compound, how does the EC50 (MCF-7 cell line) read?
Answer: 3.81 ± 0.06 µM

Question: Which “% cell population with high orange fluorescence” value (A2780 cells; Experiment 1) does the source give for `N.N.[Cl][Pt][Cl]` [Cisplatin, reference compound] here?
Answer: 88.9%

Question: What about the “% cell population with low orange fluorescence” value (A2780 cells; Experiment 1) of the same compound?
Answer: 11.1%

Question: And the “% cell population with high orange fluorescence” value (A2780 cells; Experiment 2)?
Answer: 87%

Question: And the “% cell population with low orange fluorescence” value (A2780 cells; Experiment 2)?
Answer: 13.0%

Question: And the “% cell population with high orange fluorescence” value (A2780 cells; Experiment 3)?
Answer: 82.1%

Question: And the “% cell population with low orange fluorescence” value (A2780 cells; Experiment 3)?
Answer: 17.9%

Question: What about the “% cell population with high orange fluorescence” value (A2780 cells; Summary, mean values ± SD) of the same compound?
Answer: 86 ± 3.5%

Question: What about the IC50 [6] of the same compound?
Answer: 4.5 ± 0.2 µM

Question: What about the “Selectivity index (SI), H460” value ([6]; mean IC50 PNT2 / mean IC50 H460) of the same compound?
Answer: 2.67

Question: And the IC50 [7]?
Answer: 12 ± 0.7 µM

Question: And the IC50 [8]?
Answer: 18 ± 0.6 µM

Question: And the “Selectivity factor (cross-resistance, resistance factor RF)” value ([8]; IC50 A2780cisR / IC50 A2780)?
Answer: 2.8

Question: What about the “Selectivity index (SI), A2780cisR” value ([8]; mean IC50 PNT2 / mean IC50 A2780cisR) of the same compound?
Answer: 0.67

Question: And the IC50 [9]?
Answer: 6.5 ± 0.4 µM

Question: And the “Selectivity index (SI), A2780” value ([9]; mean IC50 PNT2 / mean IC50 A2780)?
Answer: 1.85

Question: With `Cc1ccc(C(C)C)cc1.N#CC1=C(C#N)[S][Ru-]([P+]23CN4CN(CN(C4)C2)C3)[S]1` [Complex 4, (η^6‐p‐cymene)(PTA)Ru(Mnt)] as the compound, how does the “Concentration above which the complex precipitates” value [10] read?
Answer: higher than 50 μM

Question: What about the IC50 [6] of the same compound?
Answer: ≥ 50 µM

Question: What about the IC50 [7] of the same compound?
Answer: ≥ 50 µM

Question: What about the IC50 [8] of the same compound?
Answer: ≥ 50 µM

Question: And the IC50 [9]?
Answer: ≥ 50 µM
